Experimental data as given in patent US20260285875A1, “INHIBITORS OF PARG” (858 Therapeutics, Inc., priority 2023, published 2026).
pIC50: −log10 of the molar value.

target: T1, cellular PARG (Homo sapiens, UniProt Q86W56); assay: Nuclear PAR accumulation assay (immunofluorescence high-content imaging, MMS-treated HeLa cells); assay type: cell-based; details: 1 hour compound then MMS 50 μg/mL for an additional hour
T1 construct: endogenous in cells; host or cells: HeLa
In short: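 HeLa cells pretreated with compound for 1 h at 37° C, then given 50 μg/mL MMS for another hour. After methanol fixation, PAR was immunostained with DAPI nuclear counterstain; per-nucleus intensity and percent PAR-positive cells were imaged at 20× (≥1,000 cells/well). IC50 from four-parameter logistic fit.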

T1 sequence (Q86W56 whole entry): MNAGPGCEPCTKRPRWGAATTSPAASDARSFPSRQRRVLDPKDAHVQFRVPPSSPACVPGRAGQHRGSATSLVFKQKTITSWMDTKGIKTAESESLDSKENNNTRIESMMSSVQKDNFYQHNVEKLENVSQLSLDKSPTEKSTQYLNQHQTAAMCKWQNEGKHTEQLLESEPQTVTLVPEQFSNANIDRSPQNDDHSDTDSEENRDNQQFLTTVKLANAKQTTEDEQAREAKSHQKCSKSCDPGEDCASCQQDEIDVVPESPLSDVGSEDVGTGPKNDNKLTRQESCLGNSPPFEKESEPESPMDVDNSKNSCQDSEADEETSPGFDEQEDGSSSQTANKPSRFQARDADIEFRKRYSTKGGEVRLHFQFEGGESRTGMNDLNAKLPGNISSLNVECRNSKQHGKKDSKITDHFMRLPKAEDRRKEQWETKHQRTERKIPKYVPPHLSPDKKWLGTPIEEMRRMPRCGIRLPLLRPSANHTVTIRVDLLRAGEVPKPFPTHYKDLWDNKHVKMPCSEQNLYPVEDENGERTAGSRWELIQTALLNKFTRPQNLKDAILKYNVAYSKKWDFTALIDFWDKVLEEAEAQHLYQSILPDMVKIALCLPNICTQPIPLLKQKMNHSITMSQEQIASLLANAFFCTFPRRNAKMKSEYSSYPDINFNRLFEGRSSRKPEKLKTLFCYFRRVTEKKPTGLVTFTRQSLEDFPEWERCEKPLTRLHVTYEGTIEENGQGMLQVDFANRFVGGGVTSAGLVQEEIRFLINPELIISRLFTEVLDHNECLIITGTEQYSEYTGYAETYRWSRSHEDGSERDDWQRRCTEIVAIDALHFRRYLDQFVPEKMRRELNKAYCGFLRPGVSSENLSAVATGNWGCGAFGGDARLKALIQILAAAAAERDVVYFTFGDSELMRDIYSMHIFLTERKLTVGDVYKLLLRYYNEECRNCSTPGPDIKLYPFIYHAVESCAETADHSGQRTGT

Compound | pIC50
CCn1nccc1C#C[C@@H]1CN=C2N(Cc3cnn(C)c3)C(=O)c3cc(S(=O)(=O)NC4(C)CC4)ccc3N21 [Example 207, (R)-1-((1-ethyl-1H-pyrazol-5-yl)ethynyl)-4-((1-methyl-1H-pyrazol-4-yl)methyl)-N-(1-methylcyclopropyl)-5-oxo-1,2,4,5-tetrahydroimidazo[1,2-a]quinazoline-7-sulfonamide] | > 7.00
CN1C(=O)c2cc(S(=O)(=O)NC3(C)CC3)ccc2N2C1=NCC2C#Cc1cnc2cc(C(F)(F)F)cnn12 (stereo not shown) [Example 209, 4-methyl-N-(1-methylcyclopropyl)-5-oxo-1-((7-(trifluoromethyl)imidazo[1,2-b]pyridazin-3-yl)ethynyl)-1,2,4,5-tetrahydroimidazo[1,2-a]quinazoline-7-sulfonamide] | > 7.00
[2H]C([2H])(c1cnn(C)c1)N1C(=O)c2cc(S(=O)(=O)NC3(C)CC3)c(F)cc2N2C1=N[C@H]1CCC[C@H]12 [Example 212, (7aS,10aR)-2-fluoro-6-((1-methyl-1H-pyrazol-4-yl)methyl-d2)-N-(1-methylcyclopropyl)-5-oxo-6,7a,8,9,10,10a-hexahydro-5H-cyclopenta[4,5]imidazo[1,2-a]quinazoline-3-sulfonamide] | > 7.00
[2H]C([2H])(c1cnn(C)c1)N1C(=O)c2cc(S(=O)(=O)NC3(C)CC3)c(OC)cc2N2C1=N[C@H]1CCC[C@H]12 [Example 213, (7aS,10aR)-2-methoxy-6-((1-methyl-1H-pyrazol-4-yl)methyl-d2)-N-(1-methylcyclopropyl)-5-oxo-6,7a,8,9,10,1Oa-hexahydro-5H-cyclopenta[4,5]imidazo[1,2-a]quinazoline-3-sulfonamide] | 6.00 to 7.00
[2H]C([2H])(c1cnn(C)c1)N1C(=O)c2cc(S(=O)(=O)NC3(C)CC3)c(N(C)C)cc2N2C1=N[C@H]1CCC[C@H]12 [Example 214, (7aS,10aR)-2-(dimethylamino)-6-((1-methyl-1H-pyrazol-4-yl)methyl-d2)-N-(1-methylcyclopropyl)-5-oxo-6,7a,8,9,10,10a-hexahydro-5H-cyclopenta[4,5]imidazo[1,2-a]quinazoline-3-sulfonamide] | 5.00 to 6.00
CN1C(=O)c2cc(S(=O)(=O)NC3(C)CC3)c(F)cc2N2C1=NCC2C#Cc1cnc2cccnn12 (stereo not shown) [Example 215, 8-fluoro-1-(imidazo[1,2-b]pyridazin-3-ylethynyl)-4-methyl-N-(1-methylcyclopropyl)-5-oxo-1,2,4,5-tetrahydroimidazo[1,2-a]quinazoline-7-sulfonamide] | > 7.00
Cc1cc(C#C[C@@H]2CN=C3N(C)C(=O)c4cc(S(=O)(=O)NC5(C)CC5)ccc4N32)ccn1 [Example 216, (R)-4-methyl-N-(1-methylcyclopropyl)-1-((2-methylpyridin-4-yl)ethynyl)-5-oxo-1,2,4,5-tetrahydroimidazo[1,2-a]quinazoline-7-sulfonamide] | > 7.00
Cc1nn(C)cc1C#C[C@@H]1CN=C2N(Cc3cnn(C)c3)C(=O)c3cc(S(=O)(=O)NC4(C)CC4)ccc3N21 [Example 218, (R)-1-((1,3-dimethyl-1H-pyrazol-4-yl)ethynyl)-4-((1-methyl-1H-pyrazol-4-yl)methyl)-N-(1-methylcyclopropyl)-5-oxo-1,2,4,5-tetrahydroimidazo[1,2-a]quinazoline-7-sulfonamide] | > 7.00
C[C@H]1CON=C2N(Cc3cnn(C)c3)C(=O)c3cc(S(=O)(=O)NC4(C)CC4)ccc3N21 [Example 220, (S)-1-methyl-5-((1-methyl-1H-pyrazol-4-yl)methyl)-N-(1-methylcyclopropyl)-6-oxo-1,2,5,6-tetrahydro-[1,2,4]oxadiazino[4,3-a]quinazoline-8-sulfonamide] | 6.00 to 7.00
C[C@@H]1CN=C2N(Cc3cccnc3C#N)C(=O)c3cc(S(=O)(=O)NC4(C)CC4)c(F)cc3N21 [Example 223, (R)-4-((2-cyanopyridin-3-yl)methyl)-8-fluoro-1-methyl-N-(1-methylcyclopropyl)-5-oxo-1,2,4,5-tetrahydroimidazo[1,2-a]quinazoline-7-sulfonamide] | 6.00 to 7.00
CCN1C(=O)c2cc(S(=O)(=O)NC3(C)CC3)ccc2N2C1=NC[C@H]2C#Cc1cc(C2CC2)nn1C [Example 228, (R)-1-((3-cyclopropyl-1-methyl-1H-pyrazol-5-yl)ethynyl)-4-ethyl-N-(1-methylcyclopropyl)-5-oxo-1,2,4,5-tetrahydroimidazo[1,2-a]quinazoline-7-sulfonamide] | > 7.00
CN1CCN(C2(C#C[C@@H]3CN=C4N(C)C(=O)c5cc(S(=O)(=O)NC6(C)CC6)ccc5N43)CC2)CC1 [Example 229, (R)-4-methyl-N-(1-methylcyclopropyl)-1-((1-(4-methylpiperazin-1-yl)cyclopropyl)ethynyl)-5-oxo-1,2,4,5-tetrahydroimidazo[1,2-a]quinazoline-7-sulfonamide] | 6.00 to 7.00
[2H]C([2H])(c1cnn(C)c1)N1C(=O)c2cc(S(=O)(=O)NC3(C)CC3)ccc2N2C1=NC[C@H]2C#Cc1cc(C)nn1C [Example 231, (R)-1-((1,3-dimethyl-1H-pyrazol-5-yl)ethynyl)-4-((1-methyl-1H-pyrazol-4-yl)methyl-d2)-N-(1-methylcyclopropyl)-5-oxo-1,2,4,5-tetrahydroimidazo[1,2-a]quinazoline-7-sulfonamide] | > 7.00

The next lines start with the values.

pIC50 | Compound
> 7.00 | CCN1C(=O)c2cc(S(=O)(=O)NC3(C)CC3)ccc2N2C1=NC[C@H]2C#Cc1c2ncccc2nn1C [Example 208, (R)-4-ethyl-1-((2-methyl-2H-pyrazolo[4,3-b]pyridin-3-yl)ethynyl)-N-(1-methylcyclopropyl)-5-oxo-1,2,4,5-tetrahydroimidazo[1,2-a]quinazoline-7-sulfonamide]
> 7.00 | Cn1cc(CN2C(=O)c3cc(S(=O)(=O)NC4(C)CC4)ccc3N3C2=NC[C@H]3C#Cc2ccnn2C(F)F)cn1 [Example 210, (R)-1-((1-(difluoromethyl)-1H-pyrazol-5-yl)ethynyl)-4-((1-methyl-1H-pyrazol-4-yl)methyl)-N-(1-methylcyclopropyl)-5-oxo-1,2,4,5-tetrahydroimidazo[1,2-a]quinazoline-7-sulfonamide]
> 7.00 | [2H]C([2H])([2H])n1nccc1C#C[C@@H]1CN=C2N(Cc3cnn(C)c3)C(=O)c3cc(S(=O)(=O)NC4(C)CC4)ccc3N21 [Example 211, (R)-4-((1-methyl-1H-pyrazol-4-yl)methyl)-1-((1-(methyl-d3)-1H-pyrazol-5-yl)ethynyl)-N-(1-methylcyclopropyl)-5-oxo-1,2,4,5-tetrahydroimidazo[1,2-a]quinazoline-7-sulfonamide]
> 7.00 | Cn1cc(CN2C(=O)c3cc(S(=O)(=O)NC4(C)CC4)ccc3N3C2=NC[C@H]3C#Cc2c(F)cnn2C)cn1 [Example 217, (R)-1-((4-fluoro-1-methyl-1H-pyrazol-5-yl)ethynyl)-4-((1-methyl-1H-pyrazol-4-yl)methyl)-N-(1-methylcyclopropyl)-5-oxo-1,2,4,5-tetrahydroimidazo[1,2-a]quinazoline-7-sulfonamide]
> 7.00 | C[C@@H]1CON=C2N(Cc3cnn(C)c3)C(=O)c3cc(S(=O)(=O)NC4(C)CC4)ccc3N21 [Example 219, (R)-1-methyl-5-((1-methyl-1H-pyrazol-4-yl)methyl)-N-(1-methylcyclopropyl)-6-oxo-1,2,5,6-tetrahydro-[1,2,4]oxadiazino[4,3-a]quinazoline-8-sulfonamide]
> 7.00 | Cn1cc(CN2C(=O)c3cc(S(=O)(=O)NC4(C)CC4)ccc3N3C2=NC[C@H]3C#Cc2cnc3cccnn23)cn1 [Example 221, (R)-1-(imidazo[1,2-b]pyridazin-3-ylethynyl)-4-((1-methyl-1H-pyrazol-4-yl)methyl)-N-(1-methylcyclopropyl)-5-oxo-1,2,4,5-tetrahydroimidazo[1,2-a]quinazoline-7-sulfonamide]
> 7.00 | [2H]C([2H])(c1cnn(C)c1)N1C(=O)c2cc(S(=O)(=O)NC3(C)CC3)c(NC)cc2N2C1=N[C@H]1CCC[C@H]12 [Example 222, (7aS,10aR)-6-((1-methyl-1H-pyrazol-4-yl)methyl-d2)-2-(methylamino)-N-(1-methylcyclopropyl)-5-oxo-6,7a,8,9,10,10a-hexahydro-5H-cyclopenta[4,5]imidazo[1,2-a]quinazoline-3-sulfonamide]
> 7.00 | CN1C(=O)c2cc(S(=O)(=O)NC3(C)CC3)ccc2N2C1=NCC2C#Cc1ccnc(F)c1 (stereo not shown) [Example 224, 1-((2-fluoropyridin-4-yl)ethynyl)-4-methyl-N-(1-methylcyclopropyl)-5-oxo-1,2,4,5-tetrahydroimidazo[1,2-a]quinazoline-7-sulfonamide]
> 7.00 | Cc1cccc(C#CC2CN=C3N(C)C(=O)c4cc(S(=O)(=O)NC5(C)CC5)ccc4N32)n1 (stereo not shown) [Example 225, 4-methyl-N-(1-methylcyclopropyl)-1-((6-methylpyridin-2-yl)ethynyl)-5-oxo-1,2,4,5-tetrahydroimidazo[1,2-a]quinazoline-7-sulfonamide]
6.00 to 7.00 | CN1C(=O)c2cc(S(=O)(=O)NC3(C)CC3)ccc2N2C1=NCC2C#Cc1ccnc(C(F)(F)F)c1 (stereo not shown) [Example 226, 4-methyl-N-(1-methylcyclopropyl)-5-oxo-1-((2-(trifluoromethyl)pyridin-4-yl)ethynyl)-1,2,4,5-tetrahydroimidazo[1,2-a]quinazoline-7-sulfonamide]
> 7.00 | COc1cc(C#CC2CN=C3N(C)C(=O)c4cc(S(=O)(=O)NC5(C)CC5)ccc4N32)ccn1 (stereo not shown) [Example 227, 1-((2-methoxypyridin-4-yl)ethynyl)-4-methyl-N-(1-methylcyclopropyl)-5-oxo-1,2,4,5-tetrahydroimidazo[1,2-a]quinazoline-7-sulfonamide]
> 7.00 | C[C@@H]1CN=C2N(Cc3cn(C)nc3C3CC3)C(=O)c3cc(S(=O)(=O)NC4(C)CC4)ccc3N21 [Example 230, (R)-4-((3-cyclopropyl-1-methyl-1H-pyrazol-4-yl)methyl)-1-methyl-N-(1-methylcyclopropyl)-5-oxo-1,2,4,5-tetrahydroimidazo[1,2-a]quinazoline-7-sulfonamide]
